Test results from ChEMBL document CHEMBL1155647, “New eudesmane sesquiterpenes from Plectranthus cylindraceus” (J Nat Prod, 2000).
Activity calls are given as the source filed them.

How the values were obtained:
[1] = test system: Staphylococcus aureus; assay: Antimicrobial activity against Staphylococcus aureus ATCC 29213 at 100 ug/mL by agar dilution assay; assay type: functional, organism-based
[2] = test system: Candida albicans; assay: Antimicrobial activity against Candida albicans ATCC 10231 at 100 ug/mL by agar dilution assay; assay type: functional, organism-based
[3] = test system: Pseudomonas aeruginosa; assay: Antimicrobial activity against Pseudomonas aeruginosa ATCC 15442 at 100 ug/mL by agar dilution assay; assay type: functional, organism-based
[4] = test system: Mycolicibacterium smegmatis; assay: Antimicrobial activity against Mycobacterium smegmatis ATCC 35797 at 100 ug/mL by agar dilution assay; assay type: functional, organism-based
[5] = test system: Escherichia coli; assay: Antimicrobial activity against Escherichia coli ATCC 25922 at 100 ug/mL by agar dilution assay; assay type: functional, organism-based
[6] = test system: Bacillus subtilis; assay: Antimicrobial activity against Bacillus subtilis ATCC 6633 at 100 ug/mL by agar dilution assay; assay type: functional, organism-based
[7] = test system: MCF7; assay: Anticancer activity against human MCF7 cells; assay type: functional, cell-based
[8] = test system: NCI-H460; assay: Anticancer activity against human NCI-H460 cells; assay type: functional, cell-based
[9] = test system: SF-268; assay: Anticancer activity against human SF268 cells; assay type: functional, cell-based

Measured: Activity

COc1cc(O)c2c(=O)c(OC)c(-c3ccc(O)c(OC)c3)oc2c1
not listed: [7] | [8] | [9]
inactive: all other assays above

COc1cc2oc(-c3ccc(O)c(O)c3)c(OC)c(=O)c2c(O)c1OC
not listed: [7] | [8] | [9]
inactive: all other assays above

CC(=O)OC[C@@]12CC[C@@H](C(C)C)[C@@H](OC(C)=O)[C@@H]1C(C)=CC(=O)C2
inactive: all assays above

CC(=O)OC[C@@]12CC[C@@H](C(C)C)[C@@H](O)[C@@H]1C(C)=CC(=O)C2
not listed: [7] | [8] | [9]
inactive: all other assays above

CC(=O)O[C@@H]1[C@H](C(C)C)CC[C@@]2(CO)CC(=O)C=C(C)[C@@H]12
inactive: all assays above

COc1ccc(-c2oc3cc(OC)c(OC)c(O)c3c(=O)c2OC)cc1O
not listed: [7] | [8] | [9]
inactive: all other assays above
